Reference: article PMC11369887 (RSC Advances, 2024)
Read-outs that look alike come from different tables or passages of the source.

Experiments:
[1] = target: T1, human DNA topoisomerase II beta (Topo2β) (Homo sapiens, UniProt Q02880); assay: Topo2β polymerase inhibition assay (ELISA), Hep3B; format: cell-based; set-up: concentration or dose not given beside the values; details: against Hep3B cell line
Experimental: (§1) This assay was employed to predict the inhibitory effects of novel compounds on Topo2β. […] The melting points were determined using a Stuart apparatus, and the values given are uncorrected. IR spectra were recorded using a Shimadzu IR 4000s spectrophotometer (KBr, cm^−1) at the College of Pharmaceutical Sciences and Drug Manufacturing, Misr University for Science and Technology, Egypt. ^1H NMR spectra were recorded using a Bruker 400 MHz (Bruker Corp., Billerica, MA, USA) spectrophotometer, Faculty of Pharmacy, Cairo University, Cairo, Egypt and the Centre of Drug Discovery Research & Development, Faculty of Pharmacy, Ain shams University, and a Jeol 500 MHz spectrophotometer at the National Research Center. Chemical shifts were recorded in ppm on a δ scale, coupling constants (J) were given in Hz and peak multiplicities are designed as follows: s, singlet; d, doublet; t, triplet; m, multiplet. ^13C NMR spectra were recorded using a Bruker 100 MHz spectrophotometer, Faculty of Pharmacy, Cairo University and the Centre of Drug Discovery Research & Development, Faculty of Pharmacy, Ain shams University, and a Jeol 500 MHz spectrophotometer at the National Research Center. Chemical shifts were recorded in ppm on a δ scale. Microanalyses for C, H, and N were carried out at the Regional Center for Mycology and Biotechnology, Faculty of Pharmacy, Al-Azhar University. C, H, and N analysis values were accepted within the range of ± 0.4 of the calculated percentages. […] The used eluting system was methanol : hexane with a ratio of 9.5/0.5 respectively. Scientific microwave MAS-II was used under 300 W microwave irradiation, operating at 80 °C. The evaluation of the cytotoxic activity was performed at VACSERA, Giza, Egypt, using MCF-7, Hep3B and leukemia SR cell lines. Enzyme assay, cell cycle analysis, apoptosis and caspase-3 assay were carried out at VACSERA, Giza, Egypt using an SEB870Hu 96 Tests Enzyme-linked Immunosorbent Assay Kit for Topoisomerase II Beta.
This assay employs a quantitative sandwich enzyme immunoassay technique. […] Antibody specific for Topo2β was pre-coated onto a microplate. Standards and samples were pipetted into the wells and any Topo2β present was bound by the immobilized antibody. After removing any unbound substances, a biotin-conjugated antibody specific for Topo2β was added to the wells. After washing, avidin-conjugated Horseradish Peroxidase (HP) was added to the wells. Following washing to remove any unbound avidin–enzyme reagent, a substrate solution was added to the wells and color develops in proportion to the amount of Topo2β bound in the initial step. The color development was stopped, and the intensity of the color was measured. […] The sensitivity of this assay or lower limit of detection (LLD) is defined as the lowest protein concentration that could be differentiated from zero. The mean OD value of 20 replicates of the zero standard was determined and added to their three standard deviations.[64]

[2] = system: Hep3B cells; assay: Cell cycle analysis by propidium iodide staining, flow cytometry; format: cell-based, human; details: Hep3B cells treated at IC50
Experimental: An apoptosis study was performed at the Cell Culture Unit, VACSERA, Cairo, Egypt. […] The treated cells were washed twice with ice-cold phosphate-buffered saline (PBS), centrifuged and then fixed in ice-cold 70% (v/v) ethanol to prevent clustering of cells during fixation. […] Then 3 mL of PBS was added, and the cells were centrifuged to remove the supernatant. The cells were analyzed by flow cytometry using a FACSort Calibur (Becton Dickinson Biosciences, CA, USA). Finally, the Cell Quest software was used to determine the cell cycle distribution.[65,66]

[3] = system: active caspase-3; assay: Caspase-3 enzyme assay (ELISA) in Hep3B; format: cell-based, human; details: Hep3B cells
Experimental: Caspases are crucial mediators of apoptosis. Among them, caspase-3 is considered as a key effector caspase in inducing cell apoptosis and serves as a marker of programmed cell death.[58] Compounds 3c and 5 were tested for their effect on caspase-3 levels in the most sensitive liver cancer cell line Hep3B.
Caspase-3 is one of the crucial mediators of programmed cell death (apoptosis) as it is essential for the formation of apoptotic bodies.[67–70] Active caspase-3 level was measured in pg ml^−1 protein using an Invitrogen ELISA kit (catalog KHO1091). The following procedures were performed. First, 100 μL of the standard diluent buffer was added to the zero standard wells. Then, 100 μL of standards and controls or diluted samples were added to the appropriate microtitre wells. Cover wells were covered and incubated for 2 h at room temperature. The solution was decanted from wells. Then 100 μL of active caspase-3 detection antibody solution was pipetted into each well. The plate was covered and incubated for 1 h at room temperature. After that, 100 μL of Anti-Rabbit IgG HP working solution was added to each well. The wells were covered with a plate cover and incubated for 30 min at room temperature. Then, 100 μL of stabilized chromogen was added to each well. The liquid in the wells will begin to turn blue, and the wells were incubated for 30 min at room temperature. A stop solution was added to each well. The solution in the wells should change from blue to yellow. The plate was read within 2 h after adding the stop solution. Curve fitting software was used to generate the standard curve.

[4] = in vitro; details: human, THLE2 normal liver cells
Experimental: (§2) The following normal cell lines were selected: normal breast MCF-10a, normal liver THLE2 and normal lymphocyte PCS-800-011. […] Moreover, the toxic effect of representative target compounds was evaluated on normal breast (MCF10a), normal liver (THLE2) and normal lymphocyte (PCS-800-011) cell lines using an MTT assay. […] The cells were cultured using Dulbecco's modified Eagle's medium (DMEM) (Invitrogen/Life Technologies) supplemented with 10% fetal bovine serum (FBS) (Hyclone), 10 μg mL^−1 of insulin (Sigma), and 1% penicillin–streptomycin. All chemicals and reagents were purchased from Sigma-Aldrich or Invitrogen. For 24 hours before to the MTT experiment, plate cells (densities of 1.2–1.8 × 10 000 cells per well) were layered in a 96-well plate containing 100 μL of the tested chemical per well and 100 μL of full growth media.
(§3) The culture medium was transferred to a centrifuge tube. […] Then 2.0 to 3.0 mL of Trypsin EDTA solution was added to the flask, and the cells were observed using an inverted microscope until the cell layer became dispersed (usually within 5–15 min). After that, 6.0 to 8.0 mL of complete growth medium was added and the cells were aspirated by gently pipetting. The cell suspension was transferred to the centrifuge tube with the medium and cells from step 1 and centrifuged at approximately 125 g for 5–10 min. The supernatant was discarded. The cell pellet was re-suspended in a fresh growth medium. Appropriate aliquots of the cell suspension were added to new culture vessels.
(§4) For the best results, the cells in the log phase of growth should be employed and the final cell number should not exceed 10^6 cells per cm^2. Each test should include a blank containing a complete medium without cells. Cultures from the incubator were transferred into a laminar flow hood or other sterile work area. […] Reconstituted MTT was added in an amount equal to 10% of the culture medium volume. Cultures were returned to the incubator for 2–4 h depending on the cell type and maximum cell density. An incubation period of 2 h is generally adequate but may be lengthened for low cell densities or cells with lower metabolic activity. The incubation times should be consistent when making comparisons. […] Occasionally, especially in dense cultures, pipetting up and down may be required to completely dissolve the MTT formazan crystals. The absorbance was spectrophotometrically measured at a wavelength of 570 nm. The background absorbance of multiwell plates was measured at 690 nm and subtracted from the 450 nm measurement. Tests performed in multiwell plates might be read using an appropriate type of plate reader or the contents of individual wells might be transferred to appropriate size cuvettes for spectrophotometric measurement.

[5] = system: leukemia (L-SR) cell line; assay: MTT cytotoxicity assay, L-SR; details: Homo sapiens, 48 h, read-out: Cytotoxicity IC50 L-SR
Experimental: (§5) The newly synthesized compounds were evaluated for their in vitro growth inhibition of three human tumor cell lines representing different tumor types, namely, breast adenocarcinoma (MCF-7), liver hepatocellular carcinoma (Hep3B) and leukemia-SR. […] The breast tumor cell line (MCF-7), hepatic tumor cell line (Hep3B) and leukemia-SR cell line were obtained from American Type Culture Collection. The cells were cultured using Dulbecco's modified Eagle's medium (DMEM) (Invitrogen/Life Technologies) supplemented with 10% fetal bovine serum (FBS) (Hyclone), 10 μg mL^−1 of insulin (Sigma), and 1% penicillin–streptomycin. […] For 24 hours before to the MTT experiment, plate cells (densities of 1.2–1.8 × 10 000 cells per well) were layered in a 96-well plate containing 100 μL of the tested chemical per well and 100 μL of full growth media.
as §3, §4

[6] = system: human breast cancer (MCF-7) cell line; assay: MTT cytotoxicity assay, MCF-7; details: Homo sapiens, MCF7, 48 h, read-out: Cytotoxicity IC50 MCF-7
Experimental: as §5, §3, §4

[7] = system: human liver cancer (Hep3B) cell line; assay: MTT cytotoxicity assay, Hep3B; details: Homo sapiens, Hep3B
Experimental: as §5, §3, §4

[8] = system: Hep3B cells; assay: Annexin V-FITC/propidium iodide apoptosis assay; details: for Total %: apoptosis and necrosis total; for Total % / Early apoptosis % / Late apoptosis % / Necrosis %: treated at IC50; for percentage of apoptotic cells (summation of Q2 and Q3): early plus late apoptosis
Experimental: An Annexin-V-FITC apoptosis assay was used to determine apoptosis and necrosis. The cells were incubated with Annexin-V-FITC, centrifuged and then resuspended in 500 μL of 1× binding buffer. Then 5 μL of Annexin-V-FITC and 5 μL of propidium iodide (PI) were added, and the cells were then trypsinized and washed once with serum-containing media before incubation with Annexin-V-FITC at room temperature for 5 min in the dark. A FACSort Calibur flow cytometer (Becton Dickinson Biosciences) was used to analyze apoptosis.[56,57]

[9] = target: T1, human DNA topoisomerase II beta (Topo2β); assay: Topo2β polymerase inhibition assay (ELISA), MCF-7; format: cell-based; details: against MCF-7 cell line
Experimental: as §1, with “Enzyme assay, cell cycle analysis, apoptosis and caspase-3 assay were carried out at VACSERA, Giza, Egypt using an SEB870Hu 96 Tests Enzyme-linked Immunosorbent Assay Kit for Topoisomerase II Beta.” left out
This assay employs a quantitative sandwich enzyme immunoassay technique. […] The color development was stopped, and the intensity of the color was measured. […] The mean OD value of 20 replicates of the zero standard was determined and added to their three standard deviations.[64]

[10] = in vitro; details: human, PCS-800-011 normal lymphocyte cells
Experimental: as §2, §3, §4

[11] = in vitro; details: human, MCF-10a normal breast cells
Experimental: as §2, §3
For the best results, the cells in the log phase of growth should be employed and the final cell number should not exceed 10^6 cells per cm^2. […] The absorbance was spectrophotometrically measured at a wavelength of 570 nm. The background absorbance of multiwell plates was measured at 690 nm and subtracted from the 450 nm measurement. Tests performed in multiwell plates might be read using an appropriate type of plate reader or the contents of individual wells might be transferred to appropriate size cuvettes for spectrophotometric measurement.

[12] = target: T1, human DNA topoisomerase II beta (Topo2β); assay: Topo2β polymerase inhibition assay (ELISA), L-SR; format: cell-based; set-up: endogenous in cells; host or cells: MCF-7 (A4), Hep3B (A5), L-SR (A6) human cancer cell lines; details: against L-SR cell line
Experimental: as §1
This assay employs a quantitative sandwich enzyme immunoassay technique. […] Antibody specific for Topo2β was pre-coated onto a microplate. Standards and samples were pipetted into the wells and any Topo2β present was bound by the immobilized antibody. After removing any unbound substances, a biotin-conjugated antibody specific for Topo2β was added to the wells. After washing, avidin-conjugated Horseradish Peroxidase (HP) was added to the wells. […] The color development was stopped, and the intensity of the color was measured. […] The mean OD value of 20 replicates of the zero standard was determined and added to their three standard deviations.[64]

[13] = 48 h, read-out: Cytotoxicity IC50 Hep3B

T1 sequence (Q02880 whole entry): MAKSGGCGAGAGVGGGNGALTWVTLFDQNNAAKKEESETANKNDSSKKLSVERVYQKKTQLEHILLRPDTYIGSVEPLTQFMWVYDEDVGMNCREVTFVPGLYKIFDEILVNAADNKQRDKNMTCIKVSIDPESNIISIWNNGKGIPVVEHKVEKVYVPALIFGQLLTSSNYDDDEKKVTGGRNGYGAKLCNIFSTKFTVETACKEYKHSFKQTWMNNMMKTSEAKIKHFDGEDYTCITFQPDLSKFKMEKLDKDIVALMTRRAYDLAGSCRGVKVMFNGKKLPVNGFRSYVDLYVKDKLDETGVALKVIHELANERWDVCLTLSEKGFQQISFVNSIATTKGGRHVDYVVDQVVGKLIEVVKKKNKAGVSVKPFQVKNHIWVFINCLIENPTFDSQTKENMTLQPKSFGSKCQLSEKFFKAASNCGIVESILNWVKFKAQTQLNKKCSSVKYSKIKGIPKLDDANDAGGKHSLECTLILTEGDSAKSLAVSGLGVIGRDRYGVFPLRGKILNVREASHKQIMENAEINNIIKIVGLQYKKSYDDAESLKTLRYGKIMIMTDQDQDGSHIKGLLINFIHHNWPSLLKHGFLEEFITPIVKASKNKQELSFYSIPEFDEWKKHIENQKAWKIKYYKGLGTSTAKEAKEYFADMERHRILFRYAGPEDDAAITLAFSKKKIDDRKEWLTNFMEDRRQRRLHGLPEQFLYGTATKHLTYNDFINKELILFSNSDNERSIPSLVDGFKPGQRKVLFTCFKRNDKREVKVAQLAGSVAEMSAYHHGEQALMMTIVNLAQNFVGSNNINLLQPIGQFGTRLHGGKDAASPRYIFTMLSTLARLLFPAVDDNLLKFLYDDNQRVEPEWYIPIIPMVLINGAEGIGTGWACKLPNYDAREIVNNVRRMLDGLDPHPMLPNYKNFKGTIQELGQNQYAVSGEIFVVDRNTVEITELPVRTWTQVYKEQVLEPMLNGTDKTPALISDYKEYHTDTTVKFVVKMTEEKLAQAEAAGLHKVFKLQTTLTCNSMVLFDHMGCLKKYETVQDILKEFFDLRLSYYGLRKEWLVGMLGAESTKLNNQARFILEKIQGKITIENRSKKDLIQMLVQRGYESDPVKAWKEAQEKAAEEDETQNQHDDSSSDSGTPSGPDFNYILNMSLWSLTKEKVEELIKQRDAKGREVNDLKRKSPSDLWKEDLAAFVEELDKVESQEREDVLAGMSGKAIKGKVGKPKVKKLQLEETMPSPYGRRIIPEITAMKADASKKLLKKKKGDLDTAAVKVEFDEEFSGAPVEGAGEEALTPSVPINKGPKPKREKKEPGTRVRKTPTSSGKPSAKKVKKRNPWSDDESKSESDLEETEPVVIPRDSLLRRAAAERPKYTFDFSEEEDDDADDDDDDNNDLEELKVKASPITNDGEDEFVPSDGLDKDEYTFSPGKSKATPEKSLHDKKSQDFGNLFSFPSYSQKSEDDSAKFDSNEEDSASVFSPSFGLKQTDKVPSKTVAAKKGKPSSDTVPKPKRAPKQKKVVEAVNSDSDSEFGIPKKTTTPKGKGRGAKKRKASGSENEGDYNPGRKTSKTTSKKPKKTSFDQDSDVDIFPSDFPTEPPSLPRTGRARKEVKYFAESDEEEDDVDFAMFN

| Compound | Topo2β% inhibition [1] [%] | DNA content %G0–G1 [2] [%] | DNA content %G2/M [2] [%] | DNA content %S [2] [%] | Caspase-3 Conc. [3] [pg/mL] | IC50 at 48 h [4] [µM] | IC50 [5] [µM] | IC50 [6] [µM] | IC50 [7] [µM] | IC50 [7, 13] [µM] | Total % [8] [%] | percentage of apoptotic cells (summation of Q2 and Q3) [8] [%] | Early apoptosis % [8] [%] | Late apoptosis % [8] [%] | Necrosis % [8] [%] | Topo2β% inhibition [9] [%] | IC50 at 48 h [10] [µM] | IC50 at 48 h [11] [µM] | Topo2β% inhibition [12] [%] | melting point [°C] |
| --- | --- | --- | --- | --- | --- | --- | --- | --- | --- | --- | --- | --- | --- | --- | --- | --- | --- | --- | --- | --- |
| COc1ccc(C=NNC(=O)c2cn3c4c(c(N5CCN(C)CC5)c(F)cc4c2=O)OCC3C)cc1 (stereo not drawn) [Compound 3c, 9-Fluoro-3-methyl-10-(4-methylpiperazin-1-yl)-N′-(4-methoxybenzylidene)-7-oxo-2,3-dihydro-7H-[1,4]oxazino[2,3,4-ij]quinoline-6-carbohydrazide] | 81.33 | 43.53 | 18.91 | 37.56 | 407.3 ± 7.55 | 20 ± 0.76 | 22.4 ± 1.34 | 40.6 ± 3.17 | 0.43 | 0.43 ± 0.01 | 32.91 | 25.87 | 11.54 | 14.33 | 7.04 |  |  |  |  |  |
| CCOC(=O)CC(C)=NNC(=O)c1cn2c3c(c(N4CCN(C)CC4)c(F)cc3c1=O)OCC2C (stereo not drawn) [Compound 5, Ethyl 3-(2-(9-fluoro-3-methyl-10-(4-methylpiperazin-1-yl)-7-oxo-2,3-dihydro-7H-[1,4]oxazino[2,3,4-ij]quinoline-6-carbonyl)hydrazineylidene)butanoate] | 83.73 | 38.49 | 22.42 | 39.09 | 375.8 ± 16.6 | 40.6 ± 2.28 | 0.96 ± 0.06 | 1.4 ± 0.06 |  | 3.77 ± 0.17 | 38.11 | 32.21 | 9.54 | 22.67 | 5.9 | 78.30 | 19.7 ± 1.03 | 30.4 ± 1.66 | 80.29 |  |
| CC1COc2c(N3CCN(C)CC3)c(F)cc3c(=O)c(C(=O)N4NC(=O)CC4=N)cn1c23 (stereo not drawn) [Compound 7, 9-Fluoro-6-((5-imino-3-oxopyrazolidine-1-yl)carbonyl)-3-methyl-10-(4-methylpiperazin-1-yl)-2,3-dihydro-7H-[1,4]oxazino[2,3,4-ij]quinolin-7-one] | 71.92 |  |  |  |  | 68.5 ± 3.86 | 12.1 ± 0.73 | 4.37 ± 0.2 |  | 6.99 ± 0.32 |  |  |  |  |  |  | 32.1 ± 1.68 |  |  | 101 to 103 |
| CC1COc2c(N3CCN(C)CC3)c(F)cc3c(=O)c(C(=O)N4CCCCC4)cn1c23 (stereo not drawn) [Compound 13a, 9-Fluoro-3-methyl-10-(4-methylpiperazin-1-yl)-6-((piperidin-1-yl)carbonyl)-2,3-dihydro-7H-[1,4]oxazino[2,3,4-ij]quinolin-7-one] | 68.77 |  |  |  |  | 29.9 ± 1.68 | 3.12 ± 0.19 | 12.1 ± 0.56 |  | 3.46 ± 0.16 |  |  |  |  |  |  |  |  | 69.38 | 238 to 240 |
| COc1cc([C@@H]2c3cc4c(cc3[C@@H](O[C@@H]3O[C@@H]5CO[C@@H](C)O[C@H]5[C@H](O)[C@H]3O)[C@H]3COC(=O)[C@H]23)OCO4)cc(OC)c1O [Etoposide, reference compound] | 73.22 | 36.14 | 37.62 | 26.24 | 460 ± 11.3 | 35.2 ± 2.19 | 3.38 ± 0.13 | 16.3 ± 0.72 | 21.9 | 21.9 ± 0.72 | 27.09 |  | 3.41 | 9.37 | 14.31 | 63.18 | 37.1 ± 1.79 | 23.9 ± 1.55 | 69.85 |  |
| C[C@H]1COc2c(N3CCN(C)CC3)c(F)cc3c(=O)c(C(=O)O)cn1c23 [Levofloxacin, reference compound] | 73.59 | 29.66 | 39.87 | 30.47 | 391.7 ± 5.86 | 29.9 ± 1.52 | 7.38 ± 0.31 | 2.79 ± 0.16 | 8.94 | 8.94 ± 0.29 | 34.62 | 23.60 | 0.95 | 22.65 | 11.02 | 59.80 | 20.2 ± 0.85 | 22.2 ± 1.41 | 70.40 |  |
